Data published in publication PMC8000592, “Discovery and Optimization of Selective Inhibitors of Meprin α (Part I)” (Pharmaceuticals, 2021).
Where two headings read alike, the source gives them in different places.

How the values were obtained:
[1] = molecular target: T1, meprin α (Homo sapiens, UniProt Q16819); test: Meprin α assay, fluorogenic substrate (Mca)-YVADAPK-(K-ε-Dnp), 384 and 1536 well plate formats; type: biochemical; settings: for selectivity for meprin α: versus meprin β, in words
T1 sequence (Q16819 66-593 limits assumed): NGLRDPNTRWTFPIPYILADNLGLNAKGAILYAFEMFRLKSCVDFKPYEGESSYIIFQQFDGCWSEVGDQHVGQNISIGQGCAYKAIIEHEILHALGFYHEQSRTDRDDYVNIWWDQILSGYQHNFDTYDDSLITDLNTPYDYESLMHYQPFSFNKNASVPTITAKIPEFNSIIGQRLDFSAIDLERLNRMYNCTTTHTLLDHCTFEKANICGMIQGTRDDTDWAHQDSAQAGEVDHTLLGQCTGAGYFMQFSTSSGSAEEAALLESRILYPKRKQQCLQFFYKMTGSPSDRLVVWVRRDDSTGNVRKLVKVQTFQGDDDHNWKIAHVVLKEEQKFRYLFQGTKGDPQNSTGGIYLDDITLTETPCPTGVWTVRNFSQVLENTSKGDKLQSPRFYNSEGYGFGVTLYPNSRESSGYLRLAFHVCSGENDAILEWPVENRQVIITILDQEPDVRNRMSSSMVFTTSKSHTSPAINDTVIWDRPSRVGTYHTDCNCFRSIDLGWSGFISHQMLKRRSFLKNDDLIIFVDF
Excerpt: The meprin α and meprin β assays, which utilize the substrates (Mca)-YVADAPK-(K-ε-Dnp) and (Mca)-EDEDED-(K-ε-Dnp), respectively, have been described previously. To enable an ultra-high-throughput screening (uHTS) campaign, we proceeded to miniaturize both assays to 1536 well plate format (wpf). First, we recapitulated the assays in 1536 well plate using reagents at the same concentrations as in 384 well plate format assays by scaling the volume down by the factor of 2.5.
Both assays followed the same general protocol. A 5 µL measure of 2 × enzyme solution (2.6 and 0.1 nM for meprin α and meprin β, respectively) in assay buffer (50 mM Hepes, 0.01% Brij-35, pH 7.5) was added to solid bottom black 384 low volume plates (Nunc, cat# 264705). Next, 75 nL of test compounds or pharmacological control (actinonin or NFF449) were added to corresponding wells using a 384-pin tool device (V&P Scientific, San Diego, CA, USA). After 30 min incubation at RT, the reactions were started by addition of 5 µL of 2 × solutions of substrates (20 µM, mepin α substrate Mca-YVADAPK-K(Dnp) or meprin β substrate Mca-EDEDED-K(Dnp)). Reactions were incubated at RT for 1 h, after which the fluorescence was measured using the Synergy H4 multimode microplate reader (Biotek Instruments) (λexcitation = 324 nm, λemission = 390 nm).
Both assays followed the same general protocol. A 2 µL portion of 2 × enzyme solution (1.3 and 0.0125 nM for meprin α and meprin β, respectively) in assay buffer (50 mM Hepes, 0.01% Brij-35, pH 7.5) was added to solid bottom black 1536 low volume plates (Corning cat# 7261). Next, 30 nL of test compounds or pharmacological control (actinonin or NFF449) was added to corresponding wells using a 1536 pin tool device (V&P Scientific, San Diego). After 30 min incubation at RT, the reactions were started by addition of 2 µL of 2x solutions of substrates (20 µM, meprin α substrate Mca-YVADAPK-K(Dnp) or meprin β substrate Mca-EDEDED-K(Dnp)). Reactions were incubated at RT for 1 h, after which the fluorescence was measured using the Viewlux multimode microplate reader (Perkin Elmer) (λexcitation = 324 nm, λemission = 390 nm).
The miniaturized 1536-well plate format meprin α and meprin β assays were used to screen a collection of approximately 650,000 compounds (The Scripps Research library, La Jolla, CA, USA) on the automated Kalypsys/GNF platform at The Scripps Research Molecular Screening Center (SRMSC, Jupiter, FL, USA: http://hts.florida.scripps.edu/). Both uHTS campaigns were run separately but in a similar manner. Briefly, the first step was the primary screen of all test compounds as singlicates against the meprin α and meprin β target at a final concentration of 7.0 μM. Next, compounds selected as primary hits were cherry-picked and retested in triplicate against the primary screen target and its antitarget (meprin α for the meprin β screening effort, and vice versa) at a same final concentration of 7.0 μM. The additional counter screen assays against related metzincins (MMP-8, MMP-14, and ADAM10) were performed in triplicate at a final concentration of 7.0 μM. The final step was the titration of selected hits as 10-point, 1:3 serial dilutions in both the target and antitarget assay, starting at a final nominal concentration of 17 μM. […] Wells treated with DMSO only were used as negative controls and 0% inhibition reference. […] All data generated during this effort were uploaded to the SRMSC’s institutional screening database (Assay Explorer, Symyx). Sample to background (S/B) ratios, as well as Z and Z’ values, were calculated on a per plate basis as described 14. Curve fitting and resulting IC50 determinations were performed as previously reported.

[2] = test system: BJ skin fibroblasts and primary melanocytes; test: Cell toxicity studies (CellTiter-Glo, 72 h); type: cell-based; settings: skin fibroblast and melanocyte viability
Protocol: We also tested representative compounds from each scaffold for effects on skin fibroblast and melanocyte viability to ascertain cytotoxicity towards various skin cell types.
Test compounds were solubilized in 100% DMSO and added to polypropylene 384 well plates (Greiner cat# 781280). The 1250 of BJ skin fibroblasts (ATCC CRL-2522) and primary melanocytes (ATCC PCS-200-013) were plated in 384 well plates in 8 µL of serum-free media […]. Test compounds and pharmacological assay control (lapatinib) were prepared as 10-point, 1:3 serial dilutions starting at 10 mM, then added to the cells using the pin tool mounted on the Integra 384. Plates were incubated for 72 h at 37 °C, 5% CO2 and 95% relative humidity. […] Luminescence was recorded using a Biotek Synergy H1 multimode microplate reader. Viability was expressed as a percentage relative to wells containing media only (0%) and wells containing cells treated with DMSO only (100%). Three parameters were calculated on a per plate basis: (a) the signal-to-background ratio (S/B); (b) the coefficient for variation (CV; CV = (standard deviation/mean) × 100)) for all compound test wells; and (c) the Z’-factor. IC50 values were calculated by fitting normalized data to sigmoidal log versus response equation utilizing nonlinear regression analysis from GraphPad Prizm 8.

[3] = molecular target: meprin β; settings: cited from earlier work
[4] = test system: MMP and ADAM; settings: cited from earlier work
[5] = triplicate, 10-point, 3:1 serial dilution, highest concentration 17.4 µM, read-out: Meprin α IC50

O=C(CSc1nnc(NC(=O)c2ccccc2)s1)NO [Compound 19847]
IC50 [1, 5]: 892 nM

O=C(CSc1nnc(NC(=O)COc2ccccc2)s1)NO [Compound 19848]
IC50 [1, 5]: 335 nM

COc1cc(OC)cc(C(=O)CNc2nnc(SCC(=O)NO)s2)c1 [Compound 19849]
IC50 [1, 5]: 218 nM

COc1ccc(-n2c(CSc3ncccn3)nnc2SCC(=O)NO)cc1 [Compound 19855]
selectivity for meprin α [1]: show selectivity for meprin α

O=C(CCN(Cc1cccs1)S(=O)(=O)c1ccc([N+](=O)[O-])cc1)NO [Compound 162799]
selectivity against meprin β and other tested metzincins [1]: > 30 fold
Meprin α IC50 ([1]; triplicate, 10-point, 3:1 serial dilution, highest concentration 17.4 µM): sub-micromolar
IC50 [1, 5]: 564 nM
selectivity for meprin α [1]: show selectivity for meprin α

O=C(CCN(Cc1ccccc1)S(=O)(=O)c1ccc(F)cc1)NO [Compound 162808]
cytotoxicity (effect on cell viability) [2]: no cytotoxicity
selectivity against meprin β and other tested metzincins [1]: > 30 fold
Selectivity Fold ([1]; meprin α versus meprin β): 38 fold
IC50 [1, 5]: 446 nM
selectivity for meprin α [1]: show selectivity for meprin α

O=C(COc1ccc(Cl)cc1Cl)NO [Compound 1596857]
IC50 [1]: 1180 nM

O=C(Nc1cc(C(=O)Nc2ccc(S(=O)(=O)O)cc2S(=O)(=O)O)cc(C(=O)Nc2ccc(S(=O)(=O)O)cc2S(=O)(=O)O)c1)Nc1cc(C(=O)Nc2ccc(S(=O)(=O)O)cc2S(=O)(=O)O)cc(C(=O)Nc2ccc(S(=O)(=O)O)cc2S(=O)(=O)O)c1 [NFF449]
IC50 ([1]; Meprin α 384 wpf, read-out: IC50): > 100000 nM
IC50 ([1]; Meprin α 1536 wpf, read-out: IC50): > 100000 nM
Ki [3]: 22 nM
selectivity against adamalysins and matrixins [4]: good selectivity

O=[N+]([O-])c1ccc(CN2CCC3(CCc4ccccc43)CC2)o1 [SR207820]
IC50 [1, 5]: > 17000 nM

O=C(c1ccc(C(=O)O)c([N+](=O)[O-])c1)c1ccc(C(=O)O)c([N+](=O)[O-])c1 [SR355996]
IC50 [1, 5]: > 17000 nM

CSc1nnc2c(n1)OC(c1ccc([N+](=O)[O-])o1)Nc1ccccc1-2 (stereo not drawn) [SR412882]
IC50 [1, 5]: > 17000 nM
